Experimental data as given in patent US20150141435A1, “2-PYRIDONE ANTIMICROBIAL COMPOSITIONS” (Emergent BioSolutions, priority 2010, published 2015).
Converted amounts (≈) assume the structure as drawn. Counter-ions that a name gives are not always drawn. Like-named read-outs stand apart in the source and are kept apart here.

Key:
Format in all cases: cell-based
E. coli ATCC 25922 = test: MIC, CLSI broth microdilution (Table 2); conditions: Escherichia coli
H. influenzae ATCC 49247 = test: MIC, CLSI broth microdilution (Table 2); conditions: Haemophilus influenzae
E. faecium ATCC 19434 = test: MIC, CLSI broth microdilution (Table 1); conditions: Enterococcus faecium
E. faecalis ATCC 29212 = test: MIC, CLSI broth microdilution (Table 1); conditions: Enterococcus faecalis
[1] = test system: S. maltophilia ATCC 17677; test: MIC, CLSI broth microdilution (Table 2); conditions: Stenotrophomonas maltophilia
A. baumannii ATCC 19606 = test: MIC, CLSI broth microdilution (Table 2); conditions: Acinetobacter baumannii
P. aeruginosa ATCC 27853 = test: MIC, CLSI broth microdilution (Table 2); conditions: Pseudomonas aeruginosa
K. pneumoniae ATCC 33495 = test: MIC, CLSI broth microdilution (Table 2); conditions: Klebsiella pneumoniae
S. aureus ATCC 25923 = test: MIC, CLSI broth microdilution (Table 1); conditions: Staphylococcus aureus
[2] = test system: S. aureus BAA-1720 (MRSA, FQ-R); test: MIC, CLSI broth microdilution (Table 1); conditions: Staphylococcus aureus; Gram positive; MHB, 37° C., 16-20 hours; read-out: MIC S. aureus BAA-1720 (MRSA, FQ-R)
[3] = test system: S. aureus ATCC 43300 (MRSA, FQ-S); test: MIC, CLSI broth microdilution (Table 1); conditions: Staphylococcus aureus, read-out: MIC S. aureus ATCC 43300 (MRSA, FQ-S)
S. pneumonia ATCC 49619 = test: MIC, CLSI broth microdilution (Table 1); conditions: Streptococcus pneumoniae
[4] = ATCC25922, Gram negative, MHB, 37° C., 16-20 hours, read-out: MIC E. coli ATCC 25922
[5] = ATCC49247, Gram negative, MHB, 37° C., 16-20 hours, read-out: MIC H. influenzae ATCC 49247
[6] = ATCC19434, Gram positive, MHB, 37° C., 16-20 hours, read-out: MIC E. faecium ATCC 19434
[7] = ATCC29212, Gram positive, MHB, 37° C., 16-20 hours, read-out: MIC E. faecalis ATCC 29212
[8] = ATCC17677, Gram negative, MHB, 37° C., 16-20 hours, read-out: MIC S. maltophilia ATCC 17677
[9] = ATCC19606, Gram negative, MHB, 37° C., 16-20 hours, read-out: MIC A. baumannii B. ATCC 19606
[10] = ATCC27853, Gram negative, MHB, 37° C., 16-20 hours, read-out: MIC P. aeruginosa ATCC 27853
[11] = ATCC33495, Gram negative, MHB, 37° C., 16-20 hours, read-out: MIC K. pneumoniae ATCC 33495
[12] = ATCC25923, Gram positive, MHB, 37° C., 16-20 hours, read-out: MIC S. aureus ATCC 25923
[13] = Gram positive, MHB, 37° C., 16-20 hours
[14] = ATCC49619, Gram positive, MHB, 37° C., 16-20 hours, read-out: MIC S. pneumonia ATCC 49619
[15] = ATCC25922, read-out: MIC E. coli ATCC 25922
[16] = ATCC49247, read-out: MIC H. influenzae ATCC 49247
[17] = ATCC29212, read-out: MIC E. faecalis ATCC 29212
[18] = ATCC17677, read-out: MIC S. maltophilia ATCC 17677
[19] = ATCC19606, read-out: MIC A. baumannii B. ATCC 19606
[20] = ATCC33495, read-out: MIC K. pneumoniae ATCC 33495
[21] = ATCC25923, read-out: MIC S. aureus ATCC 25923
[22] = ATCC49619, read-out: MIC S. pneumonia ATCC 49619

Structure (SMILES)	MIC (E. coli ATCC 25922; [4])	MIC (H. influenzae ATCC 49247; [5])	MIC (E. faecium ATCC 19434; [6])	MIC (E. faecalis ATCC 29212; [7])	MIC [1, 8]	MIC (A. baumannii ATCC 19606; [9])	MIC (P. aeruginosa ATCC 27853; [10])	MIC (K. pneumoniae ATCC 33495; [11])	MIC (S. aureus ATCC 25923; [12])	MIC [2]	MIC [3, 13]	MIC (S. pneumonia ATCC 49619; [14])	further results
Cc1c(-c2ccc(N)c(Cl)c2)ccn2c(=O)c(C(=O)O)cc(C3CC3)c12 [Example 11 K salt, 8-(4-amino-3-chloro-phenyl)-1-cyclopropyl-9-methyl-4-oxo-4H-quinolizine-3-carboxylic acid]	0.064 mg/L	≤ 0.004 mg/L	0.25 mg/L	0.016 mg/L	0.125 mg/L	0.064 mg/L	2 mg/L	0.125 mg/L	≤ 0.004 mg/L	0.125 mg/L	≤ 0.004 mg/L	0.032 mg/L	
CC(=O)Nc1ccc(-c2ccn3c(=O)c(C(=O)O)cc(C4CC4)c3c2C)cc1 [Example 13 K salt, 8-(4-acetamido-phenyl)-1-cyclopropyl-9-methyl-4-oxo-4H-quinolizine-3-carboxylic acid]	0.125 mg/L	0.016 mg/L	0.5 mg/L	0.016 mg/L	0.5 mg/L	0.5 mg/L	8 mg/L	0.5 mg/L	0.008 to 0.016 mg/L	0.25 mg/L	0.008 mg/L	0.032 mg/L	
Cc1c(N2CCC[C@H](N)C2)ccn2c(=O)c(C(=O)O)cc(C3CC3)c12 [Example 35 K salt, 8-[(3S)-3-amino-1-piperidyl]-1-cyclopropyl-9-methyl-4-oxo-quinolizine-3-carboxylic acid]	0.032 mg/L	0.008 to 0.016 mg/L	2 mg/L	0.125 mg/L	0.125 mg/L	0.25 mg/L	0.5 mg/L	0.125 to 0.5 mg/L	0.032 mg/L	0.5 mg/L	0.032 mg/L	0.032 mg/L	
COc1c(N2C[C@@H]3CCCN[C@@H]3C2)c(F)cc2c(=O)c(C(=O)O)cn(C3CC3)c12 [Moxyfloxacin, reference compound]	0.032 mg/L (≈ 0.0797 µM)	0.032 mg/L (≈ 0.0797 µM)	4 mg/L (≈ 9.96 µM)	0.25 mg/L (≈ 0.623 µM)	0.125 mg/L (≈ 0.311 µM)	0.5 mg/L (≈ 1.25 µM)	2 mg/L (≈ 4.98 µM)	0.125 mg/L (≈ 0.311 µM)	0.064 mg/L (≈ 0.159 µM)	4 mg/L (≈ 9.96 µM)	0.064 mg/L (≈ 0.159 µM)	0.125 mg/L (≈ 0.311 µM)	
Cc1cc(-c2ccn3c(=O)c(C(=O)O)cc(C4CC4)c3c2C)c(Cl)cc1N [Example 30 K salt, 1-cyclopropyl-8-(4-amino-2-chloro-5-methyl-phenyl)-9-methyl-4-oxo-4H-quinolizine-3-carboxylic acid]	1 mg/L	0.064 mg/L	2 mg/L	0.064 mg/L	4 mg/L	1 to 2 mg/L	> 8 mg/L	2 to 4 mg/L	0.064 mg/L	1 mg/L	0.032 mg/L	0.25 mg/L	
Cc1c(-c2ccc(N)cc2)ccn2c(=O)c(C(=O)O)cc(C3CC3)c12 [Example 18 K salt, 8-(4-amino-phenyl)-1-cyclopropyl-9-methyl-4-oxo-4H-quinolizine-3-carboxylic acid]	0.032 mg/L	0.008 mg/L	0.25 mg/L	0.032 mg/L	0.125 mg/L	0.064 mg/L	1 mg/L	0.064 to 0.25 mg/L	0.008 mg/L	0.25 mg/L	0.008 mg/L	0.064 mg/L	
Cc1c(-c2ccc(N)cc2F)ccn2c(=O)c(C(=O)O)cc(C3CC3)c12 [Example 7 K salt, 8-(4-amino-2-fluoro-phenyl)-1-cyclopropyl-9-methyl-4-oxo-4H-quinolizine-3-carboxylic acid]	0.064 mg/L	0.008 mg/L	0.5 mg/L	0.032 mg/L	0.25 mg/L	0.125 mg/L	4 mg/L	0.125 to 0.25 mg/L	0.008 mg/L	0.25 mg/L	0.008 mg/L	0.032 to 0.064 mg/L	
Cc1c(-c2ccc(NS(C)(=O)=O)cc2)ccn2c(=O)c(C(=O)O)cc(C3CC3)c12 [Example 14 K salt, 1-cyclopropyl-9-methyl-8-(4-(methylsulfonamido)-phenyl)-4-oxo-4H-quinolizine-3-carboxylic acid]	0.25 mg/L	0.016 mg/L	8 mg/L	0.064 mg/L	1 mg/L	0.5 to 1 mg/L	> 8 mg/L	1 mg/L	0.016 mg/L	0.5 mg/L	0.016 mg/L	0.125 mg/L	
Cc1c(-c2ccc(C(N)=O)cc2)c(F)cn2c(=O)c(C(=O)O)cc(C3CC3)c12 [Example 6 K salt, 8-(4-carbamoyl-phenyl)-1-cyclopropyl-7-fluoro-9-methyl-4-oxo-4H-quinolizine-3-carboxylic acid]													MIC (E. coli ATCC 25922; [15]): 0.125 mg/L; MIC (H. influenzae ATCC 49247; [16]): ≤ 0.004 mg/L; MIC (E. faecalis ATCC 29212; [17]): 0.016 mg/L; MIC [1, 18]: 0.5 mg/L; MIC (A. baumannii ATCC 19606; [19]): 0.5 mg/L; MIC (K. pneumoniae ATCC 33495; [20]): 0.5 mg/L; MIC (S. aureus ATCC 25923; [21]): 0.008 to 0.016 mg/L; MIC [3]: 0.008 mg/L; MIC (S. pneumonia ATCC 49619; [22]): 0.032 mg/L
Cc1c(-c2ccc(N)cc2)c(F)cn2c(=O)c(C(=O)O)cc(C3CC3)c12 [Example 5 K salt, 8-(4-amino-phenyl)-1-cyclopropyl-7-fluoro-9-methyl-4-oxo-4H-quinolizine-3-carboxylic acid]													MIC (E. coli ATCC 25922; [15]): 0.064 mg/L; MIC (H. influenzae ATCC 49247; [16]): ≤ 0.004 mg/L; MIC (E. faecium ATCC 19434; ATCC19434, read-out: MIC E. faecium ATCC 19434): 0.5 mg/L; MIC (E. faecalis ATCC 29212; [17]): 0.016 to 0.032 mg/L; MIC [1, 18]: 0.125 mg/L; MIC (A. baumannii ATCC 19606; [19]): 0.064 mg/L; MIC (P. aeruginosa ATCC 27853; ATCC27853, read-out: MIC P. aeruginosa ATCC 27853): 2 mg/L; MIC (K. pneumoniae ATCC 33495; [20]): 0.125 to 0.25 mg/L; MIC (S. aureus ATCC 25923; [21]): 0.008 mg/L; MIC [3]: 0.008 mg/L; MIC (S. pneumonia ATCC 49619; [22]): 0.032 mg/L
